Here are results for 3 molecules from patent publication US20240207159A1, “SKIN PENETRATION IMPROVER” (KANEKA CORPORATION, priority 2021, published 2024).

Format in all cases: in vitro ADME, human
Series [1] in a line: Transdermal absorption test of water-soluble fluorescent dye (Franz diffusion cell, fluorescence microscopy of frozen section). Particulars: 6 hours. The method, then: A circle human skin sample having a thickness of about 700 μm was attached to a test cell of an In vitro transdermal penetration test device (“TransView C12” manufactured by CosMED). The test cell was an open system Franz diffusion cell having an effective diameter of 1.7 cm, an area of 2.27 cm^2 and a receptor liquid volume of 5.75 mL. An electrical resistance value was measured to confirm that there was not any problems with the sample. Then, the test cell was filled with a phosphate buffer solution of pH 7.0 as a receptor liquid. The phosphate buffer solution of pH 7.01 (500 μL) containing 1.5 mass % surfactin sodium salt (SF), 1 mass % phospholipid (DMPC: 1,2-dimyristoyl-sn-glycero-3-phosphocholine) and 10 mM water-soluble fluorescent dye (calcein) was applied to the skin sample, and the skin sample was installed at the test device of which temperature was maintained at 32° ° C. to start the test.
In addition, similar tests were conducted for comparison using a PBS solution of pH 7.09 containing 10 mM water-soluble fluorescent dye, a PBS solution of pH 6.99 containing 10 mM water-soluble fluorescent dye+1.5 mass % SF, and a PBS solution of pH 7.08 containing 10 mM water-soluble fluorescent dye+1 mass % phospholipid.
The skin sample was cut 6 hours after the start of the test, embedded in O. C. T. Compound, cooled using cooled acetone to be frozen, and sliced to prepare a frozen section. The cut surface was observed using a fluorescence microscope. Separately, the used human skin sample was dyed using hematoxylin-eosin and observed under magnification.
The result of the human skin sample is shown in FIG. 1, the result of the 10 mM water-soluble fluorescent dye PBS solution is shown in FIG. 2A, the result of the 10 mM water-soluble fluorescent dye+1.5 mass % SF PBS solution is shown in FIG. 2B, the result of the 10 mM water-soluble fluorescent dye+1 mass % phospholipid PBS solution is shown in FIG. 2C, and the result of the 10 mM water-soluble fluorescent dye+1 mass % phospholipid+1.5 mass % SF PBS solution is shown in FIG. 2D.

Series [2] in a line: Transdermal absorption test using cosmetics component (Franz diffusion cell, tape stripping, HPLC). Conditions: for Penetration amount into epidermis/dermis (%) / Penetration amount into stratum corneum (%) / Wiping + first layer (%): 2 mg/cm^2, 6 hours; for Penetration amount into epidermis/dermis (%) / Penetration amount into stratum corneum (%) / Wiping + first layer (%) / Passing amount (%): ratio to 100 as total retrieved amount; for Passing amount (%): receptor liquid, 6 hours; for skin penetration property into the skin: combination of surfactin and a phospholipid in comparison with the aqueous solution. The method, then: The skin penetration properties of niacinamide and arbutin, which are often mixed in cosmetics as active ingredients, were evaluated by a similar test to Example 1. A circle human skin sample having a thickness of about 700 μm was attached to a test cell of an In vitro transdermal penetration test device (“TransView C12” manufactured by CosMED). The test cell is an open system Franz diffusion cell having an effective diameter of 2.0 cm, an area of 3.14 cm- and a receptor liquid volume of 2.4 mL. An electrical resistance value was measured to confirm that there were not any problems with the sample. Then, the test cell was filled with a phosphate buffer solution of pH 7.0 as a receptor liquid. The phosphate buffer solution of pH 7.0 containing 2 mass % surfactin sodium salt (SF), 1 mass % natural lecithin and 5 mass % active ingredient was applied to the skin sample at a rate of 2 mg/cm^2, and the skin sample was installed at the test device of which temperature was maintained at 32° C. to start the test. A phosphate buffer solution containing 5 mass % active ingredient was concurrently subjected to the test as control.
(§1) The skin sample was taken out of the test cell 6 hours after the start of the test, and the surface was wiped using cotton. Then, the first round of tape stripping, hereinafter referred to as “TS”, was conducted using a dedicated tape, hereinafter referred to as “tape”. Specifically, the tape was attached to the skin sample and then peeled. A mixed solvent (15 mL) of ethanol:water=1:1 by v/v was added thereto, and ultrasonic wave was applied to the mixture for 1 hour for extraction. The obtained liquid was retrieved, and the above-described mixed solvent was added thereto to adjust the total amount to 20 mL as an analytic sample of “wiping+first layer”.
(§2) Then, the second or later round of TS were conducted. The number of the total times of TS was 15 at a maximum, and the number of times was adjusted depending on the condition of the skin sample surface. The tapes of second or later round were combined, and the extraction using aqueous ethanol and the total amount adjustment were conducted in a similar condition to the above to prepare an analytic sample of “penetration amount into stratum corneum”.
(§3) In addition, the remaining skin sample was finely cut and divided into two tubes for crushing. Water (0.5 mL) was added into each tube, and the skin was crushed using a crushing machine for 20 minutes. The liquid containing the crushed skin was retrieved from two tubes into one centrifuge test. Then, ethanol (12 mL) was added thereto, and the mixture was efficiently stirred and centrifuged to obtain a supernatant. Water was added to the obtained supernatant to adjust the total amount to 20 mL to prepare an analytic sample of “penetration amount into epidermis/dermis”.
(§4) The receptor liquid was also retrieved, and water was added thereto to adjust the total amount to 20 mL to prepare an analytic sample of “passing amount”. The amounts of each active ingredient in each obtained solution were measured by HPLC.
The amounts of the active ingredients retrieved from each sample of the above-described “wiping+first layer”, “penetration amount into stratum corneum”, “penetration amount into epidermis/dermis” are shown in Table 1 as ratios to 100 as the total amount retrieved from 4 samples.

The nature of series [3]: Effect of concentrations of phospholipid and surfactin on penetration of active ingredient (transdermal absorption test). Conditions: 5 mass % niacinamide. The procedure:
A circle human skin sample having a thickness of about 700 μm was attached to a test cell of an In vitro transdermal penetration test device (“TransView C12” manufactured by CosMED). The test cell is an open system Franz diffusion cell having an effective diameter of 2.0 cm, an area of 3.14 cm- and a receptor liquid volume of 2.4 mL. An electrical resistance value was measured to confirm that there were not any problems with the sample. Then, the test cell was filled with a phosphate buffer solution of pH 7.0 as a receptor liquid. The phosphate buffer solution of pH 7.0 containing 2 mass % surfactin sodium salt (SF), 1 mass % natural lecithin and 5 mass % active ingredient was applied to the skin sample at a rate of 2 mg/cm^2, and the skin sample was installed at the test device of which temperature was maintained at 32° C. to start the test.
as §1, §2, §3, §4
The condition of Example 2 was used as a benchmark of the concentrations of a phospholipid and surfactin in the samples applied to the skin, and the concentration, the ½ concentration thereof and the 1/10 concentration thereof were tested. All of the concentrations of niacinamide in the samples were adjusted to 5 mass %. The ratio of the active ingredient amounts in each sample to 100 of the total retrieved amount are shown.

Setting [4] is: Control: phosphate buffer solution containing 5 mass % active ingredient, 32 °C.
[5] abbreviates: Control: phosphate buffer solution containing 5 mass % active ingredient.
Where [6] appears, read: Example: 2 mass % SF + 1 mass % natural lecithin + 5 mass % active ingredient, phosphate buffer pH 7.0.
[7] abbreviates: Example: 2 mass % surfactin sodium salt (SF) + 1 mass % natural lecithin + 5 mass % active ingredient, phosphate buffer pH 7.0.
Setting [8] is: 1/10 conc. of phospholipid and surfactin of Example 2.
Setting [9] is: Control, ratio to 100 of total retrieved amount.
[10] abbreviates: Example: phospholipid and surfactin at the concentration of Example 2.
Where [11] appears, read: ½ conc. of phospholipid and surfactin of Example 2.

In the case of `O=C(O)CN(CC(=O)O)Cc1cc2c(cc1O)Oc1cc(O)c(CN(CC(=O)O)CC(=O)O)cc1C21OC(=O)c2ccccc21` [water-soluble fluorescent dye, calcein], the “skin penetration of the water-soluble fluorescent dye (fluorescence microscope, cut surface)” value in series [1] (PBS solution pH 6.99, 10 mM dye + 1.5 mass % SF (surfactin sodium salt), FIG. 2B) was “reached deeper epidermal tissue than the stratum corneum but mainly remained in the stratum corneum”; in series [1] (PBS solution pH 7.08, 10 mM dye + 1 mass % phospholipid (DMPC), FIG. 2C), “reached deeper epidermal tissue than the stratum corneum but mainly remained in the stratum corneum”; in series [1] (PBS solution pH 7.09, 10 mM dye only, 32 °C, FIG. 2A) it was “remained on the surface and could not infiltrate the deeper area than the stratum corneum”; in series [1] (phosphate buffer pH 7.01, 10 mM dye + 1 mass % phospholipid (DMPC) + 1.5 mass % SF, FIG. 2D) it was “clearly infiltrated the epidermal tissue and also reached the dermis”.

Regarding `OC[C@H]1O[C@@H](Oc2ccc(O)cc2)[C@H](O)[C@@H](O)[C@@H]1O` [Arbutin, arbutin], in series [2] (setting [4]), the “Penetration amount into epidermis/dermis (%)” value worked out at 0%, the “Penetration amount into stratum corneum (%)” value turned out to be 5% and the “Wiping + first layer (%)” value turned out to be 95%. Besides, the “Passing amount (%)” value in series [2] (setting [5]) worked out at 0%. Further, in series [2] (setting [6]), the “Penetration amount into epidermis/dermis (%)” value is listed as 23%, the “Penetration amount into stratum corneum (%)” value is 25% and the “Passing amount (%)” value is on record as 0%. Moreover, in series [2] (setting [7]), the “Wiping + first layer (%)” value was 52%. The “skin penetration property into the skin” value in series [2] was “remarkably improved”.

Consider `NC(=O)c1cccnc1` [Niacinamide, niacinamide], for which the “Passing amount (%)” value came out at 15% in series [3] (setting [8]); 15% in series [3] (setting [9]); 39% in series [3] (setting [10]); 15% in series [3] (setting [11]); 0% in series [2] (setting [5]); 0% in series [2] (setting [6]). For the same molecule, the “Penetration amount into epidermis/dermis (%)” value in series [3] (setting [8]) is listed as 18%; in series [3] (setting [9]), 8%; in series [3] (setting [10]) it was 18%; in series [3] (setting [11]), 18%; in series [2] (setting [4]) it was 5%; in series [2] (setting [6]), 37%. Further, the “Penetration amount into stratum corneum (%)” value in series [3] (setting [8]) stood at 26%; in series [3] (setting [9]), 11%; in series [3] (setting [10]) it was 23%; in series [3] (setting [11]) it was 23%; in series [2] (setting [4]) it was 7%; in series [2] (setting [6]), 39%. In addition, the “Wiping + first layer (%)” value in series [3] (setting [8]) is 41%; in series [3] (setting [9]), 65%; in series [3] (setting [10]), 19%; in series [3] (setting [11]), 44%; in series [2] (setting [4]), 89%; in series [2] (setting [7]), 24%. Moreover, in series [2], the “skin penetration property into the skin” value is given as “remarkably improved”.
